In US4873243A, “Derivatives of 3-imino-pyridazine, process for obtaining them and pharmaceutical compositions containing them” (SANOFI, priority 1985, dated 1989):
Structures can show the parent of a compound that is named as a salt. Where two headings read alike, the source gives them in different places.

Tests used:
[1] = molecular target: GABA post-synaptic receptor; assay: Displacement of tritiated GABA from its post-synaptic receptor (Enna and Snyder method), suspension of synaptic membrane; assay type: binding; settings: in vitro, tritiated GABA 2.9 nM final concentration
Method: The therapeutic activity of the products according to the invention has been studied.
The study was carried out in accordance with the method of ENNA and SNYDER (Brain Research 100, 81-97, 1975). The experiment was carried out in vitro in the presence of a suspension of synaptic membrane and tritiated GABA at a final concentration of 2.9 nM.
The results are expressed in Inhibit Concentration 50 (IC50), i.e. the micromolar concentration which inhibits 50% of the fixation of the GABA on its post-synaptic receptor.

[2] = tested on: reserpine-induced ptosis in the mouse; assay: Antagonism of reserpine-induced ptosis in the mouse; assay type: in vivo; settings: 100 mg/kg intraperitoneal; reserpine 2 mg/kg intravenous at the same time; female mice; one hour after administration
Method: The anti-depressant properties of the products according to the invention have been studied in the animal. The anti-depressant activity was assessed in the test of antagonism of reserpine-induced ptosis in the mouse.
The study was carried out on batches of 10 female mice weighing 20±1 g. The products to be studied were administered by the intraperitoneal route at the same time as the reserpine by the intravenous route at the dose of 2 mg/kg.
In parallel, a control batch received only the vehicle of administration of the product to be studied and the reserpine.
One hour after administration, the animals were observed individually. All the animals of the control batch presented ptosis. For the treated batches, the animals not presenting ptosis were counted and the percentage of the animals where the ptosis was antagonized were determined.

mouse = assay: Acute toxicity in the mouse; assay type: in vivo; settings: 100 mg/kg intraperitoneal
Excerpt: The products according to the invention may be administered by the oral route or by the injectable route.

[3] = read-out: IC50 (concentration which inhibits 50% of the fixation of the GABA on its post-synaptic receptor)

Structure (SMILES): Cc1cc(-c2ccccc2)nn(Cc2cc(O)no2)c1=N [SR 95538, 2-[(3-hydroxy 5-isoxazolyl)methyl]-3-imino-4-methyl-6-phenyl-2,3-dihydro-pyridazine, hydrobromide]
- IC50 [1, 3]: 1000 nM
- animals in which ptosis was antagonized (inhibits ptosis) [2]: 30%
- sign of acute toxicity (mouse): no sign of acute toxicity

Structure (SMILES): N=c1ccc(-c2ccccc2)nn1Cc1cc(O)no1 [SR 95812]
- IC50 ([1]; listed as 95812, read-out: IC50 (concentration which inhibits 50% of the fixation of the GABA on its post-synaptic receptor)): 1200 nM

Structure (SMILES): N=c1ccc(-c2ccccc2)nn1Cc1cc(O)no1 [SR 95884]
- IC50 ([1]; listed as 95884, read-out: IC50 (concentration which inhibits 50% of the fixation of the GABA on its post-synaptic receptor)): 1800 nM

Structure (SMILES): N=c1ccc(-c2ccc(Cl)cc2)nn1Cc1cc(O)ns1 [SR 95885, 2-[(3-hydroxy-5-isothiazolyl)methyl]-3-imino-6-(4-chloro-phenyl)-2,3-dihydro-pyridazine, hydrobromide]
- IC50 [1, 3]: 150 nM

Structure (SMILES): Cc1nn(Cc2cc(O)ns2)c(=N)cc1-c1ccccc1 [SR 95886]
- IC50 [1, 3]: 6600 nM

Structure (SMILES): N=c1ccc(-c2ccsc2)nn1Cc1cc(O)no1 [SR 95893]
- IC50 [1, 3]: 1600 nM

Structure (SMILES): N=c1c2ccccc2c(-c2ccccc2)nn1Cc1cc(O)no1 [SR 95894]
- IC50 [1, 3]: 120 nM

Structure (SMILES): N=c1ccc(-c2ccc3c(c2)OCO3)nn1Cc1cc(O)no1 [SR 95895]
- IC50 [1, 3]: 75 nM
